According to article PMC12102759 (Protein Science : A Publication of the Protein Society, 2025):

System: G3BP1 NFT2
Type: binding, human
Conditions: library DMS-CoV, bait G3BP1 NFT2, prey N, listed as aa = residue placed at this position, column sums to 1

APRITFGGPSDSTGSN G7L (APRITFLGPSDSTGSN)
DMS PSSM value, G (position 7) (peptide APRITFGGPSDSTGSN): 0

RNAPRITFGGPSDSTG G16A (RNAPRITFGGPSDSTA)
DMS PSSM value, G (position 16) (peptide RNAPRITFGGPSDSTG): 0

APRITFGGPSDSTGSN T13A (APRITFGGPSDSAGSN)
DMS PSSM value, T (position 13) (peptide APRITFGGPSDSTGSN): 0.02642

APRITFGGPSDSTGSN S10N (APRITFGGPNDSTGSN)
DMS PSSM value, S (position 10) (peptide APRITFGGPSDSTGSN): 0

APRITFGGPSDSTGSN F6G (APRITGGGPSDSTGSN)
DMS PSSM value, F (position 6) (peptide APRITFGGPSDSTGSN): 0

APRITFGGPSDSTGSN P2H (AHRITFGGPSDSTGSN)
DMS PSSM value, P (position 2) (peptide APRITFGGPSDSTGSN): 0

APRITFGGPSDSTGSN S15K (APRITFGGPSDSTGKN)
DMS PSSM value, S (position 15) (peptide APRITFGGPSDSTGSN): 0.0001786

RNAPRITFGGPSDSTG D13I (RNAPRITFGGPSISTG)
DMS PSSM value, D (position 13) (peptide RNAPRITFGGPSDSTG): 0

APRITFGGPSDSTGSN T5Q (APRIQFGGPSDSTGSN)
DMS PSSM value, T (position 5) (peptide APRITFGGPSDSTGSN): 0

APRITFGGPSDSTGSN S15V (APRITFGGPSDSTGVN)
DMS PSSM value, S (position 15) (peptide APRITFGGPSDSTGSN): 0.03856

APRITFGGPSDSTGSN T13G (APRITFGGPSDSGGSN)
DMS PSSM value, T (position 13) (peptide APRITFGGPSDSTGSN): 0.00113

RNAPRITFGGPSDSTG P4I (RNAIRITFGGPSDSTG)
DMS PSSM value, P (position 4) (peptide RNAPRITFGGPSDSTG): 0

RNAPRITFGGPSDSTG P11M (RNAPRITFGGMSDSTG)
DMS PSSM value, P (position 11) (peptide RNAPRITFGGPSDSTG): 0

APRITFGGPSDSTGSN T13S (APRITFGGPSDSSGSN)
DMS PSSM value, T (position 13) (peptide APRITFGGPSDSTGSN): 9.878e-5

RNAPRITFGGPSDSTG G10F (RNAPRITFGFPSDSTG)
DMS PSSM value, G (position 10) (peptide RNAPRITFGGPSDSTG): 0

RNAPRITFGGPSDSTG G16T (RNAPRITFGGPSDSTT)
DMS PSSM value, G (position 16) (peptide RNAPRITFGGPSDSTG): 0

APRITFGGPSDSTGSN S10P (APRITFGGPPDSTGSN)
DMS PSSM value, S (position 10) (peptide APRITFGGPSDSTGSN): 0.1036

RNAPRITFGGPSDSTG G9H (RNAPRITFHGPSDSTG)
DMS PSSM value, G (position 9) (peptide RNAPRITFGGPSDSTG): 0

APRITFGGPSDSTGSN S12M (APRITFGGPSDMTGSN)
DMS PSSM value, S (position 12) (peptide APRITFGGPSDSTGSN): 0.01193

APRITFGGPSDSTGSN R3P (APPITFGGPSDSTGSN)
DMS PSSM value, R (position 3) (peptide APRITFGGPSDSTGSN): 0.2686

APRITFGGPSDSTGSN I4E (APRETFGGPSDSTGSN)
DMS PSSM value, I (position 4) (peptide APRITFGGPSDSTGSN): 0

APRITFGGPSDSTGSN T5R (APRIRFGGPSDSTGSN)
DMS PSSM value, T (position 5) (peptide APRITFGGPSDSTGSN): 0

APRITFGGPSDSTGSN S12G (APRITFGGPSDGTGSN)
DMS PSSM value, S (position 12) (peptide APRITFGGPSDSTGSN): 0.0009188

RNAPRITFGGPSDSTG A3Q (RNQPRITFGGPSDSTG)
DMS PSSM value, A (position 3) (peptide RNAPRITFGGPSDSTG): 0

RNAPRITFGGPSDSTG S14I (RNAPRITFGGPSDITG)
DMS PSSM value, S (position 14) (peptide RNAPRITFGGPSDSTG): 0

RNAPRITFGGPSDSTG P11T (RNAPRITFGGTSDSTG)
DMS PSSM value, P (position 11) (peptide RNAPRITFGGPSDSTG): 0

APRITFGGPSDSTGSN T5D (APRIDFGGPSDSTGSN)
DMS PSSM value, T (position 5) (peptide APRITFGGPSDSTGSN): 0

APRITFGGPSDSTGSN S10D (APRITFGGPDDSTGSN)
DMS PSSM value, S (position 10) (peptide APRITFGGPSDSTGSN): 0

RNAPRITFGGPSDSTG S14K (RNAPRITFGGPSDKTG)
DMS PSSM value, S (position 14) (peptide RNAPRITFGGPSDSTG): 0

RNAPRITFGGPSDSTG I6D (RNAPRDTFGGPSDSTG)
DMS PSSM value, I (position 6) (peptide RNAPRITFGGPSDSTG): 0

APRITFGGPSDSTGSN S12R (APRITFGGPSDRTGSN)
DMS PSSM value, S (position 12) (peptide APRITFGGPSDSTGSN): 0

RNAPRITFGGPSDSTG D13N (RNAPRITFGGPSNSTG)
DMS PSSM value, D (position 13) (peptide RNAPRITFGGPSDSTG): 0

RNAPRITFGGPSDSTG N2I (RIAPRITFGGPSDSTG)
DMS PSSM value, N (position 2) (peptide RNAPRITFGGPSDSTG): 0

RNAPRITFGGPSDSTG N2Y (RYAPRITFGGPSDSTG)
DMS PSSM value, N (position 2) (peptide RNAPRITFGGPSDSTG): 0

APRITFGGPSDSTGSN D11F (APRITFGGPSFSTGSN)
DMS PSSM value, D (position 11) (peptide APRITFGGPSDSTGSN): 0.001494

APRITFGGPSDSTGSN P9S (APRITFGGSSDSTGSN)
DMS PSSM value, P (position 9) (peptide APRITFGGPSDSTGSN): 0.003052

RNAPRITFGGPSDSTG P11W (RNAPRITFGGWSDSTG)
DMS PSSM value, P (position 11) (peptide RNAPRITFGGPSDSTG): 0

APRITFGGPSDSTGSN I4W (APRWTFGGPSDSTGSN)
DMS PSSM value, I (position 4) (peptide APRITFGGPSDSTGSN): 0

APRITFGGPSDSTGSN S12Q (APRITFGGPSDQTGSN)
DMS PSSM value, S (position 12) (peptide APRITFGGPSDSTGSN): 0.01405

RNAPRITFGGPSDSTG G16E (RNAPRITFGGPSDSTE)
DMS PSSM value, G (position 16) (peptide RNAPRITFGGPSDSTG): 0

RNAPRITFGGPSDSTG S14H (RNAPRITFGGPSDHTG)
DMS PSSM value, S (position 14) (peptide RNAPRITFGGPSDSTG): 0

APRITFGGPSDSTGSN R3T (APTITFGGPSDSTGSN)
DMS PSSM value, R (position 3) (peptide APRITFGGPSDSTGSN): 0.001362
